These results are taken from patent publication US5204311A, “Ethanediimidic acid bis[(arylalkylidene)hydrazide] color-formers” (Minnesota Mining and Manufacturing Company, priority 1991, dated 1993).

Data set [1] can be described thus: Imaging of CB sheet with encapsulated color-former on Ni-coated CF sheet. Format: physicochemical. As for the experimental part: A precondensate solution was prepared comprising 192 g of formalin, 0.63 g of potassium tetraborate, 72 g of urea, and 328 g of soft water. The formalin was 37% formaldehyde and was added to a 1-liter flask equipped with a stirrer and heating mantle. The potassium tetraborate and urea were then added, and the mixture was heated to 70° C. The reaction was maintained at that temperature for 2.5-3.0 hr. The reaction mixture was then diluted with the water and allowed to cool. The precondensate solution, with about 24% solids, was then ready for use in the encapsulation process.
The precondensate and fill (ethanediimidic acid bis[hydrazide] and carrier or fill solvents) were combined to make capsules according to the following procedure. Sodium chloride (29.54 g) was added to the stirred precondensate solution and the temperature of the solution was adjusted to 20° C. The fill material (215 g) was added and full agitation was begun. After 5 minutes of stirring, 10% hydrochloric acid solution was added over 5 minutes in an amount such that the final pH of the reaction mixture was about 2.8. The reaction mixture was stirred for another 12 minutes. More of the 10% hydrochloric acid solution was added over a period of 12 minutes, in an amount such that the final pH of the solution was about […]. The reaction mixture was stirred at 20° C. for 1 hr, and then at 60° C. for 1-3 hr. The acidic solution was allowed to cool and adjusted to a pH of 7 by addition of concentrated ammonium hydroxide solution (28%). The capsule slurry could then be stored for later use.
(§1) The capsule slurry (10 g) was added to 65 g of a 1.5% aqueous sodium alginate solution. The mixture was applied to a coated paper using a bar coater with a 3 mil gap. The coating was allowed to dry at room temperature.
(§2) A 2% solution of the compound 1 in the capsule fill solvent of diethyl phthalate, tributyl phosphate, and cyclohexane was encapsulated by the procedure described in Experiment 5 above. A coating mixture of 10.0 g of capsule slurry, 2.5 g of Dow-620 butadiene-styrene latex, and 62.5 g of 1.5% sodium alginate slurry was coated onto paper by the draw down procedure described above.
(§3) A 7.5% solution comprising 5.45% N-(5-octanoylamido-2-metylpentyl)dithiooxamide/N-(5-octanoylamido-4-methylpentyl)dithiooxamide (G') mixture and 2.05% N,N'-di(5-octanoylamido-2-methylpentyl)dithiooxamide/N-(5-octanoylamido-2- methylpentyl)-N'-(5-octanoylamido-4-methylpentyl)dithiooxamide/N,N'-(5-octanoylamido-2-methylpentyl)dithiooxamide (G) mixture in the fill solvent mixture of diethyl phthalate, tributyl phosphate, and cyclohexanone was encapsulated by the procedure described above. A coating mixture of 10.0 g of capsule slurry, 2.5 g of Dow 620 styrene-butadiene latex, and 62.5 g of 1.5% sodium alginate solution was coated onto paper by the draw down procedure described in Experiment 5 above.
A blend was prepared of 10 g of the capsule slurry containing compound 1, with 10 g of capsule slurry containing 5.45% N-(5-octanoylamido-2-methylpentyl)dithiooxamide/N-(5-octanoylamido-4-methylpentyl)dithiooxamide (G') mixture and 2.05% N,N'-di(5-octanoylamido-2-methylpentyl)dithiooxamide/N-(5-octanoylamido-2- methylpentyl)-N'-(5-octanoylamido-4-methylpentyl)dithiooxamide/N,N'-di(5-octanoylamido-4-methylpentyl)dithiooxamide (G) mixture. […]

Data set [2] in a line: Color of coated CB sheet before imaging. Format: physicochemical. The settings on record: encapsulated, before imaging (Experiments 6, 7). As for the experimental part:
as §1, §2
as §3, with “5 above. […]” for “5 above.”

The mark [3] stands for this setting: encapsulated, 2% compound 1 fill, 7.5% G'/G fill, or blend of both capsule slurries (Experiment 6).

Take `CC(C)(C)c1cc(C=NN=C(N)C(N)=NN=Cc2cc(C(C)(C)C)cc(C(C)(C)C)c2O)c(O)c(C(C)(C)C)c1` [Compound 1, ethanediimidic acid bis[(3,5-di-t-butylsalicylidene)hydrazide]]: the Image Color result in data set [1] (encapsulated (Experiment 6)) is on record as “yellow”. In addition, in data set [1] (setting [3]), the “Hunter coordinate L” value is reported as 84.0, the Hunter coordinate a was -2.04 and the Hunter coordinate b came out at 31.0. For the same compound, in data set [2], the “color of coated (CB) sheet” value is “neutral in color”.
